Source: publication PMC6220894 (Food and chemical toxicology : an international journal …, 2018)
Read-outs that look alike come from different tables or passages of the source.

Legend:
[1] = tested on: Salmonella typhimurium TA 1535; type: cell-based; conditions: plate incorporation
[2] = Stability in rabbit whole blood; type: in vitro ADME
[3] = tested on: Salmonella typhimurium TA 98; assay: Ames bacterial reverse mutation assay, plate incorporation method; type: cell-based
[4] = tested on: CYP1A2; assay: CYP mRNA induction in human hepatocytes; type: in vitro ADME; conditions: 0.3, 3, 30 µM; 72 hours; 3 donors
[5] = Stability in human whole blood; type: in vitro ADME; conditions: 37°C, no increase in salicylic acid
[6] = tested on: C. elegans; conditions: ref Nguyen et al., 2016; cited from earlier work
[7] = Red blood cell distribution in whole blood; type: in vitro ADME; conditions: human, whole blood (pooled, EDTA)
[8] = tested on: Salmonella typhimurium TA 102; assay: Ames bacterial reverse mutation assay, pre-incubation method; type: cell-based
[9] = mice; long-term (10 month) administration; ref Davies et al., 2011; cited from earlier work
[10] = tested on: Salmonella typhimurium TA 100; type: cell-based; conditions: pre-incubation
[11] = tested on: CYP2B6; assay: CYP mRNA induction in human hepatocytes; type: in vitro ADME; conditions: 0.3, 3, 30 µM; 72 hours; 3 donors
[12] = Plasma protein binding by equilibrium dialysis; type: in vitro ADME; conditions: male, Sprague-Dawley, rat, plasma, pH 7.4
[13] = tested on: plasma protein; assay: Plasma protein binding by equilibrium dialysis; type: in vitro ADME; conditions: rat plasma, mean ± SE
[14] = tested on: memory deficits; conditions: mouse model of Alzheimer's disease; ref Davies et al., 2011; cited from earlier work
[15] = +S9, 0.05 mg/plate as printed (third dose row)
[16] = −S9, 0.05 mg/plate as printed (third dose row)

CC(=O)O.NCc1ccccc1O [2-HOBA, 2-Hydroxybenzylamine acetate]
Mean plate counts (revertant colonies) ([1]; +S9, 0.05 mg/plate): 9.3±1.5 | Mean plate counts (revertant colonies) [1, 15]: 10.7±0.6 | Mean plate counts (revertant colonies) ([1]; +S9, 0.15 mg/plate): 9.0±1.0 | Mean plate counts (revertant colonies) ([1]; +S9, 1.5 mg/plate): 10.3±1.5 | Mean plate counts (revertant colonies) ([1]; +S9, 5 mg/plate): 10.3±1.5 | Change in revertant colony counts vs negative control (mutagenicity) ([1]; +S9 and −S9, all dose levels): No changes in revertant colony counts were observed | Mean plate counts (revertant colonies) ([1]; −S9, 0.05 mg/plate): 10.7±0.6 | Mean plate counts (revertant colonies) [1, 16]: 10.7±1.2 | Mean plate counts (revertant colonies) ([1]; −S9, 0.15 mg/plate): 11.0±1.0 | Mean plate counts (revertant colonies) ([1]; −S9, 1.5 mg/plate): 10.7±1.2 | Mean plate counts (revertant colonies) ([1]; −S9, 5 mg/plate): 11.0±1.0 | stability in the presence of semicarbazide ([2]; rabbit blood fortified with semicarbazide (100 µm)): prevented the degradation of 2-HOBA | time until undetectable ([2]; rabbit whole blood, 1 µM, 37°C): ≤ 2 h | fraction metabolized ([2]; rabbit whole blood, within 30 min): more than 60% | fraction metabolized ([2]; rabbit whole blood, within 2 hours): nearly all | Mean plate counts (revertant colonies) ([3]; +S9, 0.05 mg/plate): 20.7±1.2 | Mean plate counts (revertant colonies) [3, 15]: 20.7±1.2 | Mean plate counts (revertant colonies) ([3]; +S9, 0.15 mg/plate): 21.0±3.0 | Mean plate counts (revertant colonies) ([3]; +S9, 1.5 mg/plate): 21.3±1.5 | Mean plate counts (revertant colonies) ([3]; +S9, 5 mg/plate): 22.0±2.0 | Change in revertant colony counts vs negative control (mutagenicity) ([3]; +S9 and −S9, all dose levels): No changes in revertant colony counts were observed | Mean plate counts (revertant colonies) ([3]; −S9, 0.05 mg/plate): 19.7±1.5 | Mean plate counts (revertant colonies) [3, 16]: 22.0±3.6 | Mean plate counts (revertant colonies) ([3]; −S9, 0.15 mg/plate): 20.0±1.0 | Mean plate counts (revertant colonies) ([3]; −S9, 1.5 mg/plate): 21.3±1.5 | Mean plate counts (revertant colonies) ([3]; −S9, 5 mg/plate): 21.0±2.0 | CYP1A2 mRNA induction (concentration-dependent >2-fold increase) [4]: no evidence of mRNA induction | metabolism in whole blood [5]: some 2-HOBA metabolism was observed | lifespan [6]: increased lifespan | Kp at 2 h, 1 µM [7]: 1.26 ± 0.01 | Kp at 2 h, 10 µM [7]: 1.08 | blood plasma ratio at 2 h, 1 µM [7]: 1.12 ± 0.03 | blood plasma ratio at 2 h, 10 µM [7]: 1.04 | Mean plate counts (revertant colonies) ([8]; +S9, 0.05 mg/plate): 280.0±6.0 | Mean plate counts (revertant colonies) ([8]; +S9, 0.15 mg/plate): 271.3±11.0 | Mean plate counts (revertant colonies) ([8]; +S9, 0.5 mg/plate): 256.0±7.2 | Mean plate counts (revertant colonies) ([8]; +S9, 1.5 mg/plate): 283.3±16.2 | Mean plate counts (revertant colonies) ([8]; +S9, 5 mg/plate): 256.7±8.1 | Change in revertant colony counts vs negative control (mutagenicity) ([8]; +S9 and −S9, all dose levels): No changes in revertant colony counts were observed | Mean plate counts (revertant colonies) ([8]; −S9, 0.05 mg/plate): 241.3±12.1 | Mean plate counts (revertant colonies) [8, 16]: 236.0±15.6 | Mean plate counts (revertant colonies) ([8]; −S9, 0.15 mg/plate): 232.7±3.1 | Mean plate counts (revertant colonies) ([8]; −S9, 1.5 mg/plate): 250.0±12.5 | Mean plate counts (revertant colonies) ([8]; −S9, 5 mg/plate): 250.7±14.0 | body weight or survival [9]: did not affect body weight or survival | Mean plate counts (revertant colonies) ([10]; +S9, 0.05 mg/plate): 114.7±12.9 | Mean plate counts (revertant colonies) ([10]; +S9, 0.15 mg/plate): 120.7±7.6 | Mean plate counts (revertant colonies) ([10]; +S9, 0.5 mg/plate): 119.3±7.6 | Mean plate counts (revertant colonies) ([10]; +S9, 1.5 mg/plate): 112.0±7.2 | Mean plate counts (revertant colonies) ([10]; +S9, 5 mg/plate): 114.0±12.5 | Change in revertant colony counts vs negative control (mutagenicity) ([10]; +S9 and −S9, all dose levels): No changes in revertant colony counts were observed | Mean plate counts (revertant colonies) ([10]; −S9, 0.05 mg/plate): 98.7±2.3 | Mean plate counts (revertant colonies) [10, 16]: 103.7±1.5 | Mean plate counts (revertant colonies) ([10]; −S9, 0.15 mg/plate): 96.7±6.1 | Mean plate counts (revertant colonies) ([10]; −S9, 1.5 mg/plate): 94.7±4.2 | Mean plate counts (revertant colonies) ([10]; −S9, 5 mg/plate): 105.3±6.1 | CYP2B6 mRNA induction (concentration-dependent >2-fold increase) [11]: no evidence of mRNA induction | fraction unbound at 4 h, 1 µM [12]: 0.76 ± 0.051 | fraction unbound at 4 h, 10 µM [12]: 0.951 | fb (bound fraction) ([13]; 1 µM): 0.240 ± 0.051 | fb (bound fraction) ([13]; 10 µM): 0.049 ± 0.029 | memory deficits [14]: protection from memory deficits
